# Laboratory results taken from patent US20150133547A1, “METHOD AND COMPOSITION FOR TREATING GLAUCOMA” (priority 2013, published 2015).
# What was measured:
# [1] = cited from earlier work
# canine subjects [2] = test: Adverse events in canine subjects after topical LC (daily ophthalmic examinations, toxicology studies of blood)
# rabbits = conditions: cited from earlier work
# rats = conditions: cited from earlier work
# canine subjects [3] = test: Intraocular pressure (IOP) in canine subjects after topical LC drops, iCARE rebound tonometer; assay type: in vivo
# Experimental: Preparations: The desired composition was DMSO 4.0%, PG 3.0% and LC 10 mg/ml (1% (by weight)), based upon the total composition.
# A vehicle was prepared for use as a subsequent dilution (serial dilutions of the initial LC strength), by mixing 4.65 ml of BSS, 0.2 ml of DMSO, and 0.15 ml of PG, to yield a diluent vehicle comprising 4.0% DMSO and 3.0% PG, based upon the total composition. A total of 5 ml was prepared.
# Methodology: Inventive compositions were prepared by simple mixing.
# IOP was determined using an iCARE® rebound tonometer. Other commercially available IOP measuring devices (tonometers) may also be used.
# Progressive dilutions of the composition set forth in Table 1 are shown in Table 2, below, starting with the original 2.5 ml volume preparation of Table 1. These subsequent dilutions were used in the canine experiments set forth below.
# The experiments were conducted on canine subjects. Canine subjects have IOP's that are the same (˜10-20 mm/Hg) as that of a human subject. Canines and humans share a common susceptibility gene, SRBD1, for glaucoma risk. Consequently, canines are excellent surrogates to assess the results of the use of the inventive compositions on humans. The results of the experiments are set forth in Table 3, below, reflecting the concentration range of LC used as 0.002% to 0.100% (by weight).
# Additional efficacy and safety experiments were conducted using an LC concentration of 0.600% (by weight) in the same animal model. This additional data confirms in two animals the safety and efficacy of topical LC in reducing intraocular pressure.
# A series of experiments was run in the same canine model, using LC concentrations, prepared as above, and ranging from 0.200% to 0.700% (by weight).
# guinea pigs = conditions: cited from earlier work
# [4] = cited from earlier work; remark: listed apart in the source
# Humans = conditions: handling of pure or concentrated lambda-cyhalothrin; cited from earlier work
# [5] = cited from earlier work; remark: listed apart in the source
# [6] = Example 2, canine, topical LC 0.600%, Day 1, drop 9:30, IOP at 9:55
# [7] = Example 2, canine, topical LC 0.600%, Day 1, drop 12:00, IOP at 12:30
# [8] = Example 2, canine, topical LC 0.600%, Day 3, drop 9:45, IOP at 10:15
# [9] = Example 2, canine, topical LC 0.600%, Day 3, drop 12:10, IOP at 12:40
# [10] = Example 3, canine, topical LC 0.200%, Day 2, drop 7:40, IOP at 8:45
# [11] = Example 3, canine, topical LC 0.300%, Day 3, drop 7:25, IOP at 7:25
# [12] = Example 3, canine, topical LC 0.300%, Day 3, drop 12:25, IOP at 13:50
# [13] = Example 3, canine, topical LC 0.300%, Day 3, drop 17:40, IOP at 17:30
# [14] = Example 3, canine, topical LC 0.400%, Day 4, drop 7:25, IOP at 7:20
# [15] = Example 3, canine, topical LC 0.400%, Day 4, drop 12:40, IOP at 12:35
# [16] = Example 3, canine, topical LC 0.400%, Day 4, drop 17:25, IOP at 17:20
# [17] = Example 3, canine, topical LC 0.500%, Day 5, drop 7:30, IOP at 7:20
# [18] = Example 3, canine, topical LC 0.500%, Day 5, drop 12:40, IOP at 12:35
# [19] = Example 3, canine, topical LC 0.600%, Day 8, drop 7:30, IOP at 7:00
# [20] = Example 3, canine, topical LC 0.600%, Day 8, drop 12:05, IOP at 12:00
# [21] = Example 3, canine, topical LC 0.600%, Day 8, drop 17:00, IOP at 16:30
# [22] = Example 3, canine, topical LC 0.700%, Day 9, drop 7:05, IOP at 7:00
# [23] = Example 3, canine, topical LC 0.700%, Day 9, drop 12:25, IOP at 12:20
# [24] = Example 3, canine, topical LC 0.700%, Day 9, drop 17:05, IOP at 17:00
# [25] = canine, topical LC 0.002%, Day 4, drop 8:30, IOP at 9:50
# [26] = canine, topical LC 0.002%, Day 5, drop 9:00, IOP at 9:50
# [27] = canine, topical LC 0.002%, Day 5, drop 14:30, IOP at 15:00
# [28] = canine, topical LC 0.020%, Day 7, drop 9:00, IOP at 9:30
# [29] = canine, topical LC 0.020%, Day 7, drop 15:00, IOP at 16:00
# [30] = canine, topical LC 0.050%, Day 9, drop 9:00, IOP at 9:30
# [31] = canine, topical LC 0.050%, Day 9, drop 15:00, IOP at 16:00
# [32] = canine, topical LC 0.100%, Day 11, drop 9:00, IOP at 9:42
# [33] = canine, topical LC 0.100%, Day 11, drop 15:00, IOP at 15:22
structure (smiles),measurement,setting,value
"CC1(C)C(/C=C(\Cl)C(F)(F)F)C1C(=O)OC(C#N)c1cccc(Oc2ccccc2)c1 [LC, (R)-cyano(3-phenoxyphenyl) methyl (1S,3S)-rel-3-[(1Z)-2-chloro-3,3,3-trifluoro-1-propenyl]-2,2-dimethyl cyclopropane carboxylate]",water solubility,[1],low
same,local or systemic adverse events,"canine subjects [2]; Example 1, daily complete ophthalmic examinations and toxicology studies of blood",no local or systemic adverse events
same,AE,"canine subjects [2]; Example 2, topical LC 0.600%, Day 1, drop 9:30",0
same,AE,"canine subjects [2]; Example 2, topical LC 0.600%, Day 1, drop 12:00",0
same,AE,"canine subjects [2]; Example 2, topical LC 0.600%, Day 3, drop 9:45",0
same,AE,"canine subjects [2]; Example 2, topical LC 0.600%, Day 3, drop 12:10",0
same,AE,"canine subjects [2]; Example 3, topical LC 0.200%, Day 2, drop 7:40",0
same,AE,"canine subjects [2]; Example 3, topical LC 0.200%, Day 2, drop 12:22",0
same,AE,"canine subjects [2]; Example 3, topical LC 0.200%, Day 2, drop 17:05",0
same,AE,"canine subjects [2]; Example 3, topical LC 0.300%, Day 3, drop 7:25",0
same,AE,"canine subjects [2]; Example 3, topical LC 0.300%, Day 3, drop 12:25",0
same,AE,"canine subjects [2]; Example 3, topical LC 0.300%, Day 3, drop 17:40",0
same,AE,"canine subjects [2]; Example 3, topical LC 0.400%, Day 4, drop 7:25",0
same,AE,"canine subjects [2]; Example 3, topical LC 0.400%, Day 4, drop 12:40",0
same,AE,"canine subjects [2]; Example 3, topical LC 0.400%, Day 4, drop 17:25",0
same,AE,"canine subjects [2]; Example 3, topical LC 0.500%, Day 5, drop 7:30",0
same,AE,"canine subjects [2]; Example 3, topical LC 0.500%, Day 5, drop 12:40",0
same,AE,"canine subjects [2]; Example 3, topical LC 0.600%, Day 8, drop 7:30",0
same,AE,"canine subjects [2]; Example 3, topical LC 0.600%, Day 8, drop 12:05",0
same,AE,"canine subjects [2]; Example 3, topical LC 0.600%, Day 8, drop 17:00",0
same,AE,"canine subjects [2]; Example 3, topical LC 0.700%, Day 9, drop 7:05",0
same,AE,"canine subjects [2]; Example 3, topical LC 0.700%, Day 9, drop 12:25",1
same,AE,"canine subjects [2]; Example 3, topical LC 0.700%, Day 9, drop 17:05",1
same,adverse events at doses other than 0.700%,canine subjects [2]; topical 0.002% to 0.600% LC,No adverse events
same,adverse events at the 0.700% dose,canine subjects [2]; topical 0.700% LC,"minimal, reversible inferior conjunctival hyperemia"
same,AE (adverse event),"canine subjects [2]; topical LC 0.002%, Day 4, drop 8:30",0
same,AE (adverse event),"canine subjects [2]; topical LC 0.002%, Day 5, drop 9:00",0
same,AE (adverse event),"canine subjects [2]; topical LC 0.002%, Day 5, drop 14:30",0
same,AE (adverse event),"canine subjects [2]; topical LC 0.020%, Day 7, drop 9:00",0
same,AE (adverse event),"canine subjects [2]; topical LC 0.020%, Day 7, drop 15:00",0
same,AE (adverse event),"canine subjects [2]; topical LC 0.050%, Day 9, drop 9:00",0
same,AE (adverse event),"canine subjects [2]; topical LC 0.050%, Day 9, drop 15:00",0
same,AE (adverse event),"canine subjects [2]; topical LC 0.100%, Day 11, drop 9:00",0
same,AE (adverse event),"canine subjects [2]; topical LC 0.100%, Day 11, drop 15:00",0
same,toxicity in skin effects for rabbits,rabbits,low toxicity
same,"EPA toxicity class, skin effects for rats",rats,moderately toxic
same,reduction in intraocular pressure after topical administration,"canine subjects [3]; Example 1, canine, 0.002% to 0.100% (by weight), dose related",significant reduction
same,IOP OD,canine subjects [3]; [6],8
same,IOP OS,canine subjects [3]; [6],7
same,IOP OD,canine subjects [3]; [7],8
same,IOP OS,canine subjects [3]; [7],8
same,IOP OD,canine subjects [3]; [8],6
same,IOP OS,canine subjects [3]; [8],7
same,IOP OD,canine subjects [3]; [9],7
same,IOP OS,canine subjects [3]; [9],7
same,IOP OD,canine subjects [3]; [10],8
same,IOP OS,canine subjects [3]; [10],7
same,IOP OD,canine subjects [3]; [11],13
same,IOP OS,canine subjects [3]; [11],10
same,IOP OD,canine subjects [3]; [12],6
same,IOP OS,canine subjects [3]; [12],7
same,IOP OD,canine subjects [3]; [13],9
same,IOP OS,canine subjects [3]; [13],8
same,IOP OD,canine subjects [3]; [14],12
same,IOP OS,canine subjects [3]; [14],11
same,IOP OD,canine subjects [3]; [15],7
same,IOP OS,canine subjects [3]; [15],7
same,IOP OD,canine subjects [3]; [16],7
same,IOP OS,canine subjects [3]; [16],7
same,IOP OD,canine subjects [3]; [17],9
same,IOP OS,canine subjects [3]; [17],10
same,IOP OD,canine subjects [3]; [18],7
same,IOP OS,canine subjects [3]; [18],7
same,IOP OD,canine subjects [3]; [19],7
same,IOP OS,canine subjects [3]; [19],7
same,IOP OD,canine subjects [3]; [20],6
same,IOP OS,canine subjects [3]; [20],6
same,IOP OD,canine subjects [3]; [21],7
same,IOP OS,canine subjects [3]; [21],8
same,IOP OD,canine subjects [3]; [22],8
same,IOP OS,canine subjects [3]; [22],7
same,IOP OD,canine subjects [3]; [23],7
same,IOP OS,canine subjects [3]; [23],7
same,IOP OD,canine subjects [3]; [24],6
same,IOP OS,canine subjects [3]; [24],5
same,persistence of the reduction of intra-ocular pressure,canine subjects [3]; after exposure,hours to days
same,reduction of IOP,"canine subjects [3]; canine, dosages ranging from 0.002% to 0.700% LC (by weight), overall",35-40%
same,IOP OD (intraocular pressure right eye),canine subjects [3]; [25],8
same,IOP OS (intraocular pressure left eye),canine subjects [3]; [25],8
same,IOP OD (intraocular pressure right eye),canine subjects [3]; [26],8
same,IOP OS (intraocular pressure left eye),canine subjects [3]; [26],8
same,IOP OD (intraocular pressure right eye),canine subjects [3]; [27],8
same,IOP OS (intraocular pressure left eye),canine subjects [3]; [27],9
same,IOP OD (intraocular pressure right eye),canine subjects [3]; [28],10
same,IOP OS (intraocular pressure left eye),canine subjects [3]; [28],9
same,IOP OD (intraocular pressure right eye),canine subjects [3]; [29],10
same,IOP OS (intraocular pressure left eye),canine subjects [3]; [29],7
same,IOP OD (intraocular pressure right eye),canine subjects [3]; [30],11
same,IOP OS (intraocular pressure left eye),canine subjects [3]; [30],11
same,IOP OD (intraocular pressure right eye),canine subjects [3]; [31],7
same,IOP OS (intraocular pressure left eye),canine subjects [3]; [31],8
same,IOP OD (intraocular pressure right eye),canine subjects [3]; [32],9
same,IOP OS (intraocular pressure left eye),canine subjects [3]; [32],10
same,IOP OD (intraocular pressure right eye),canine subjects [3]; [33],11
same,IOP OS (intraocular pressure left eye),canine subjects [3]; [33],5
same,skin sensitivity in guinea pigs,guinea pigs,no skin sensitivity
same,EPA toxicity class when inhaled,[4],moderately toxic
same,onset of symptoms after exposure,Humans,≤ 30 min
same,symptoms reported on exposure,Humans,facial tingling and burning
same,"EPA toxicity class, eye effects",[5],moderately toxic
